# From patent US11773146B2, “Disruption of the WAVE3 protein complex for suppression of invasion and metastasis” (UNIVERSITY OF GEORGIA RESEARCH FOUNDATION, INC., priority 2015, dated 2023)
# “Also recorded” adds a separate entry of the source. Bridges are numbered along the chain shown (N, C = ends). Where no end group is shown, it is not given here. [ ]: non-standard residue; d: D form. S5 = C=CCCC[C@](C)(N)C(=O)O
# Experiments:
# [1] = tested on: WASF3; assay: Western blot of WASF3 stability after WANT3; assay type: cell-based
# From the text: (§1) MDA-MB-231, Hs578T and T47D breast cancer cell lines were obtained directly from American Type Culture Collection (Rockville, Md.). MDA-MB-231 and T47D and have been verified using SNP-CGH (Teng Y, et al. Int J Cancer 2011 129:2825-2835) for characteristic cytogenetic changes. The ATCC Cell Authentication Testing service confirmed the identity of Hs578T using STR DNA fingerprinting analysis. Standard cell culture, transient transfections, RT-PCR, western blotting, immunoprecipitation (IP), flow cytometry, Biotin-Avidin pulldown, lentiviral transduction, cell proliferation and Transwell invasion assays were carried out as described previously (Teng Y, et al. Int J Cancer 2011 129:2825-2835; Teng Y, et al. J Biol Chem 2012 287:10051-10059; Teng Y, et al. Carcinogenesis 2013 34:1994-1999).
# [2] = tested on: MDA-MB-231 cells; conditions: 37° C., after 7 days
# Experimental: To evaluate the stability of these SPs, WANT3 was incubated in serum containing medium for varying lengths of time (1-7 days) at 37° C. and then this medium was added to MDA-MB-231 cells to evaluate the ability of the preincubated peptides to suppress invasion.
# [3] = tested on: NCKAP1; assay: Western blot of NCKAP1 protein after WANT3; assay type: cell-based; conditions: 10 μM
# From the text: as §1
# [4] = tested on: MDA-MB-231 cells; assay: Transwell invasion assay (WANT peptides); assay type: cell-based
# From the text: There are currently no small molecules that target WASF3 function directly, but targeting the WRC may provide a means of suppressing invasion.
# [5] = biological target: T1, WASF3 complex (Homo sapiens); assay: IP of WASF3 complex after WANT3 or WAHM1 (phosphoactivation, RAC1 engagement); assay type: cell-based; conditions: MDA-MB-231 cells
# T1 construct: endogenous in cells; host or cells: MDA-MB-231
# T1 sequence (Q7L576 whole entry, one chain of several): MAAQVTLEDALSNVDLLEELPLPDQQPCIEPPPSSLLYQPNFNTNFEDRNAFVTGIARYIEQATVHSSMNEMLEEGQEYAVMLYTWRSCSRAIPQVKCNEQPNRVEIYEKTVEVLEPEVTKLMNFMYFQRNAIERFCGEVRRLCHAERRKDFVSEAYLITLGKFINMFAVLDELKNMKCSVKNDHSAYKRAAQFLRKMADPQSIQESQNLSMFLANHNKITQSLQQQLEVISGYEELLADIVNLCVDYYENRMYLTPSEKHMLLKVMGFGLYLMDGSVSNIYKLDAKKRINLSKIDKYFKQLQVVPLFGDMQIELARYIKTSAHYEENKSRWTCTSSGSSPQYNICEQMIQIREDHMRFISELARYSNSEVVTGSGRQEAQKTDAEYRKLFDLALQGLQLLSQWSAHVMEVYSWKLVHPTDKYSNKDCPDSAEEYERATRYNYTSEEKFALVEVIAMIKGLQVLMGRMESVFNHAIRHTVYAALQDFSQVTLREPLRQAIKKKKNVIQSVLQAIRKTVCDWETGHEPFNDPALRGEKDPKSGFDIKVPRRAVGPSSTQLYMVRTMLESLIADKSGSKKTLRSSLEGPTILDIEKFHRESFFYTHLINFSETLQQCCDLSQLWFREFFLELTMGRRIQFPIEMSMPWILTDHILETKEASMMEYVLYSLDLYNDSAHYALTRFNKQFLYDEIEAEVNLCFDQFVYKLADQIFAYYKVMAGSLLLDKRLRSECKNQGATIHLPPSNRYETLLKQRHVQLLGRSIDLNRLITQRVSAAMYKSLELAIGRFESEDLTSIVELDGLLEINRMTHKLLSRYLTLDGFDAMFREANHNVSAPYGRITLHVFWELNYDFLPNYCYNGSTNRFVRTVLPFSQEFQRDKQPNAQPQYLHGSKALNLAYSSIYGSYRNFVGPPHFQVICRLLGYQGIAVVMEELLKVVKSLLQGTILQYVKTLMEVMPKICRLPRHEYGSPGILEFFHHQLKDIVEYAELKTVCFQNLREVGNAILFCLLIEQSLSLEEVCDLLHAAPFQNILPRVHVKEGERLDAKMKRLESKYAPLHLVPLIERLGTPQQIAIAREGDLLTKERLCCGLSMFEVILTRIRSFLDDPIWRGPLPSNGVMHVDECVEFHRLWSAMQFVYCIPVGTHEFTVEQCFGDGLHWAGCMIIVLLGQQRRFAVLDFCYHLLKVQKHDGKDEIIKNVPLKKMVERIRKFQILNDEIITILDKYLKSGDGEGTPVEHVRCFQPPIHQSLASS
# From the text: as §1
# [6] = tested on: MDA-MB-231 and Hs578T cells; assay: Cell proliferation, viability and toxicity with WANT3; assay type: cell-based
# From the text: as §1
# [7] = concentration range of 2.5-20 μM
sequence,measurement,setting,value
"VLXRNAXHAVYK (VL[S5]RNA[S5]HAVYK-NH2; staple 3-7; not fully specified (N-terminus); also: FITC label (in alias), site not given here) [WANT3, WASF3-NCKAP1 Target stapled peptide, NCKAP1 peptide mimic; X is (S)-2-(4′-pentenyl)alanine]",concentration achieving maximal effect on WASF3 stability,[1],20 µM
same,WASF3 stability / protein levels,"[1]; 10 μM, compared with scrambled peptide",significant destabilization of WASF3; also recorded: suppresses both WASF3 and NCKAP1 protein levels
same,"destabilization of WASF3, WANT3 compared with WHAM1",[1]; MDA-MB-231 cells,more efficient in destabilizing WASF3
same,dose dependence of WASF3 destabilization,[1]; MDA-MB-231 cells,suppresses WASF3 protein levels in a dose-dependent manner; also recorded: dose-dependent destabilization of the WASF3 protein
same,suppression of invasion after preincubation in serum-containing medium,[2],residual effect on suppression of invasion
same,NCKAP1 protein levels,[3],loss of the NCKAP1 protein; also recorded: suppresses both WASF3 and NCKAP1 protein levels
same,"suppression of invasion, WAHM1 compared with WANT3",[4],comparable suppression of invasion
same,invasion potential,[4]; final concentration of 10 μM,highly significant suppression of invasion; also recorded: significantly suppresses
same,invasion at increased concentration,[4]; high dose 20 μM compared with low dose,greater suppression of invasion; also recorded: more remarkable reduction
same,"engagement of RAC1 with the WASF3 complex, WANT3 compared with WHAM1",[5],more significant
same,"phosphoactivation of WASF3, WANT3 compared with WAHM1",[5],more significantly
same,cell proliferation,[6]; 10 μM,without affecting cell proliferation
same,in vitro cell toxicity,[6]; 10 μM,minimal
same,cell proliferation rate,[6]; [7],does not affect
same,viability,[6]; [7],does not affect
